Patent US8563052B2, “Method for preparing gintonin, which is a novel glycolipoproetin from panax ginseng, and gintonin, which is a novel glycolipoprotein, prepared by the method” (Konkuk University Industrial Cooperation Corp., priority 2009, dated 2013)

Assays:
[1] = test system: gintonin-induced CaCC currents; assay: Effects of PLC inhibitor, IP3 receptor antagonist or Ca2+ chelator on crude gintonin-mediated CaCC activation in Xenopus oocytes; type: cell-based, Xenopus laevis; conditions: for crude gintonin-induced CaCC currents, % of the control: in presence of the PLC inhibitor or inactive analog
Procedure: Two-electrode voltage-clamp recordings were obtained from individual oocytes placed in a small Plexiglas net chamber (0.5 ml). Electrophysiological experiments were performed at room temperature using microelectrodes filled with 3 M KCl (resistance of 0.2-0.7 MΩ) and an Oocyte Clamp amplifier (OC-725C; Warner Instrument, Hamden, Conn.), followed by recording CaCC at −80 mV holding potential.
For this, the effect of the IP3 receptor antagonist, membrane permeable 2-aminoethxydiphenyl borate (2-APB), on gintonin-induced CaCC activation was examined.

[2] = test system: gintonin-mediated elevation of [Ca^2+]i in mouse EAT cells; assay: Effects of active or inactive PLC inhibitors on gintonin-mediated [Ca2+]i elevation in mouse EAT cells; type: cell-based; conditions: for effect on the action of gintonin on [Ca^2+]i: mouse EAT cells, irrespective of the presence of extracellular Ca^2+; for effect on gintonin (100 ng/mL)-mediated elevation of [Ca^2+]i: pretreatment 10 μM, Ca^2+ buffer (1.5 mM Ca^2+) and Ca^2+ free buffer (0.2 mM EGTA), n=4-5/group
Procedure: Data are represented as means ±SEM (n=4-5/group).
[Ca^2+]i was estimated in fura 2-loaded cells in suspension using an RF-5300PC intracellular ion measurement system (Shimadzu Corporation, Japan). The fura 2-AM loaded cells were diluted with an experimental medium to a final density of 2˜4×10^6 cells/mL and transferred to polystyrene cuvettes (Elkay Ultra-VU). The cells were stirred using Teflon-coated magnets, and the cuvette housing was thermostatically controlled at 37° C. The excitation wavelengths were alternated between 340 and 380 nm under computer control. Emission was detected at 510 nm. Excitation and emission slit widths were 5 nm. Background correction was performed as described by Jorgensen et al. Digitonin and EGTA were used as concentration adjustment reagents to make a condition in which fura 2 completely combines with and disassociates from Ca^2+.

Row | Compound | effect on gintonin-mediated CaCC activation ([1]; 10 μM final) | crude gintonin-induced CaCC currents, % of the control [1] [%] | effect on the action of gintonin on [Ca^2+]i [2] | effect on gintonin (100 ng/mL)-mediated elevation of [Ca^2+]i [2] | inward CaCC currents induced by gintonin after addition of 2-APB ([1]; P<0.01 vs control current) [μA] | effect on gintonin-induced inward CaCC currents ([1]; addition of 2-APB)
1 | CC(=O)OCOC(=O)CN(CC(=O)OCOC(C)=O)c1ccccc1OCCOc1ccccc1N(CC(=O)OCOC(C)=O)CC(=O)OCOC(C)=O [BAPTA-AM, 1,2-bis-(2-aminophenoxy)ethane-N,N,N′,N′-tetraacetic acid acetoxymethyl ester] | almost extinguished | – | – | – | – | –
2 | COc1ccc2c(c1)CC[C@@H]1[C@@H]2CC[C@]2(C)[C@@H](NCCCCCCN3C(=O)C=CC3=O)CC[C@@H]12 [U-73122] | – | 3.9±0.3 | almost abrogate | blocked | – | –
3 | NCCOB(c1ccccc1)c1ccccc1 [2-APB, 2-aminoethxydiphenyl borate] | – | – | – | – | 0.03±0.01 | almost completely abrogated
4 | COc1ccc2c(c1)CC[C@@H]1[C@@H]2CC[C@]2(C)[C@@H](NCCCCCCN3C(=O)CCC3=O)CC[C@@H]12 [U-73343] | – | 97.2±0.2 | not | not | – | –
